Laboratory results reported in PMC11768359, “2-Aminothiophene Derivatives—New Drug Candidates Against Leishmaniasis: Drug Design, Synthesis, Pharmacomodulation, and Antileishmanial Activity” (Pharmaceuticals, 2025).
“And” between values parts separate entries of the source, which are not always exact repeats. Equal entries are not always repeated. Where two headings read alike, the source gives them in different places.

Assays:
[1] = system: axenic amastigotes of L. amazonensis; conditions: cited from earlier work; for EC50: read-out: EC50 against amastigotes
[2] = system: promastigotes of L. amazonensis; conditions: cited from earlier work
[3] = system: axenic amastigotes of L. amazonensis; experiment: Growth inhibition of axenic amastigote forms of L. amazonensis (MTT); format: cell-based, Leishmania amazonensis; conditions: Leishmania amazonensis, 72 h, 32 °C
Protocol: (§1) The in vitro tests utilized Leishmania amazonensis parasites (IFLA/BR/67/PH8). These leishmania cell lines were obtained from Oswaldo Cruz Foundation (FIOCRUZ)/Brazil. The promastigote forms were cultivated in Schneider’s insect medium at 26 °C in a biological oxygen demand (BOD) incubator. Schneider’s insect medium was supplemented with 20% fetal bovine serum (FBS) and 1% penicillin (100 U/mL) and streptomycin (µg/mL) (complete Schneider). Next, we differentiated them from promastigote forms by changing the conditions to Schneider’s insect medium supplemented with 5% FBS, pH 4.6, and a temperature of 32 °C to obtain axenic amastigote forms of L. amazonensis. Meanwhile, RAW 264.7 macrophages were cultured in […] cell culture flasks using DMEM medium supplemented with 10% FBS, 1% penicillin 100 U/mL, and 100 μg/mL streptomycin (complete DMEM) and incubated at 37 °C and 5% CO2.
(§2) Parasite growth inhibition was evaluated using the methodology described by Rodrigues et al. (2015). Cultures of logarithmically growing promastigote and axenic amastigote forms (1 × 10^6 parasites/mL) were incubated in 96-well plates containing 100 µL of supplemented Schneider’s medium in triplicate. Serial concentrations of 2-amino-thiophene and 2-amino-selenophene derivatives (10.00–0.156 μM) and the reference drugs meglumine antimoniate (500–40,000 μg/mL), amphoterecinB (0.1–2 μM), and pentamidine (3.12–100 µM) were added. BNP was used as a negative control. The cultures were incubated in a biological oxygen demand oven (model Eletrolab EL202, São Paulo, Brazil) at 26 °C for promastigotes and 32 °C for axenic amastigotes for 72 h. Then, 10 μL of MTT (5 mg/mL) was added to each well to colorimetrically evaluate growth inhibition. The plate was subsequently incubated for a further 4 h, followed by adding 50 μL of 10% sodium dodecyl sulfate solution for […] before the optical density of the culture was read on a microplate spectrophotometer reader. The reading was taken at the test and reference wavelengths of 540 and 620 nm using a microplate spectrophotometer. The negative control consisted of 0.2% […] with BNP, considered to be 100% viable.

[4] = system: promastigotes of L. amazonensis; experiment: Growth inhibition of promastigote forms of L. amazonensis (MTT); format: cell-based, Leishmania amazonensis; conditions: 72 h, 26 °C
Protocol: as §1, §2

[5] = Cytotoxicity in macrophages (MTT); format: cell-based; conditions: mouse, RAW 264.7 macrophages
Protocol: as §1
First, 100 μL DMEM medium complete with 1 × 10^6 macrophages (RAW 264.7) was added to each well of a 96-well plate. RAW 264.7 macrophages were obtain from ATCC: code TIB-71^TM. The plate was placed in an incubator (37 °C, 5% CO2) (Sanyo, model COM-15A, Sanyo Electric Co., Osaka, Japan) for 4 h to promote cell adhesion. After this period, two washes were conducted with previously heated DMEM medium (37 °C) to remove non-adhered cells. 2-amino-thiophene and 2-amino-selenophene derivatives were added to wells at serial concentrations of 400 to 25 µM and then incubated for 48 h. Next, 10 μL of MTT at a […] of 5 mg/mL were added to each well and incubated for 4 h. The plate was then shaken for 30 min and read at the test and reference wavelengths of 550 and 620 nm, respectively, in a plate reader. DMEM medium supplemented with 0.5% DMSO was used as a negative control and considered as 100% macrophage viability. The selectivity index for each treatment was calculated as the ratio between the concentration of cytotoxicity of RAW 264.7 macrophages (CC50) and the 50% inhibitory concentration (IC50) or effective concentration (EC50), as measured for the different evolutionary forms of L. amazonensis.

RAW 264.7 macrophages = conditions: previously published; cited from earlier work
[6] = L. amazonensis axenic amastigotes, previously published
[7] = L. amazonensis axenic amastigotes, previously published, read-out: IC50 Amastigotes
[8] = L. amazonensis promastigotes, previously published
[9] = L. amazonensis promastigotes, previously published, read-out: IC50 Promastigotes
[10] = L. amazonensis, read-out: IC50 against axenic amastigotes
[11] = L. amazonensis, read-out: IC50 against promastigotes
[12] = L. amazonensis amastigotes, previously published, read-out: IC50 Amastigotes
[13] = L. amazonensis promastigotes, sensitive strain, read-out: IC50 anti-promastigote

## N#Cc1c(/N=C/c2c[nH]c3ccc(Br)cc23)sc2c1CCC2 [Compound 25]
[1]; [6]
  IC50 Amastigotes: inactive against the two evolutionary forms
[1]; [7]
  IC50: > 10 µM
[2]; [8]
  IC50 Promastigotes: inactive against the two evolutionary forms
[2]; [9]
  IC50: > 10 µM

## N#Cc1c(/N=C/c2c[nH]c3ccc(Br)cc23)sc2c1CCCCCCCCCC2 [Compound 26]
[1]; [6]
  IC50 Amastigotes: inactive against the two evolutionary forms
[1]; [7]
  IC50: > 10 µM
[2]; [8]
  IC50 Promastigotes: inactive against the two evolutionary forms
[2]; [9]
  IC50: > 10 µM

## CCC1CCc2c(sc(/N=C/c3c[nH]c4ccc(Br)cc34)c2C#N)C1 (stereo not drawn) [Compound 27]
[3]
  IC50: > 10 µM
[4]; Leishmania amazonensis
  IC50: > 10 µM

## CCCC1CCc2c(sc(/N=C/c3c[nH]c4ccc(Br)cc34)c2C#N)C1 (stereo not drawn) [Compound 28]
[3]
  IC50: > 10 µM
[4]
  IC50: 8.12 µM
[4]; Leishmania amazonensis
  IC50: < 10 µM

## CC(C)(C)C1CCc2c(sc(/N=C/c3c[nH]c4ccc(Br)cc34)c2C#N)C1 (stereo not drawn) [Compound 29]
[3]
  IC50: > 10 µM
[4]; Leishmania amazonensis
  IC50: > 10 µM

## N#Cc1c(/N=C/c2c[nH]c3ccc(Br)cc23)sc2c1CCNC2 [Compound 30]
[1]; [7]
  IC50: > 10 µM
[2]; [9]
  IC50: > 10 µM

## CC(C)(C)OC(=O)N1CCc2c(sc(/N=C/c3c[nH]c4ccc(Br)cc34)c2C#N)C1 [Compound 31]
[3]
  IC50: > 10 µM
[4]; Leishmania amazonensis
  IC50: > 10 µM

## N#Cc1c(/N=C/c2c[nH]c3ccccc23)[se]c2c1CCCC2 [Compound 32]
[4]
  IC50 Promastigotes: not active up to the highest concentration evaluated
[4]; Leishmania amazonensis
  IC50: > 10 µM

## N#Cc1ccc2[nH]cc(/C=N/c3[se]c4c(c3C#N)CCCC4)c2c1 [Compound 33]
[4]; Leishmania amazonensis
  IC50: 9.32 µM
[5]
  CC50 at 48 h: 203 µM

## N#Cc1c(/N=C/c2c[nH]c3cccc([N+](=O)[O-])c23)[se]c2c1CCCC2 [Compound 34]
[4]
  IC50: 2.14 µM
[4]; Leishmania amazonensis
  IC50: < 3.5 µM
[5]
  CC50 at 48 h: 189 µM

## Cc1ccc2[nH]cc(/C=N/c3[se]c4c(c3C#N)CCCC4)c2c1 [Compound 35]
[4]
  IC50 Promastigotes: not active up to the highest concentration evaluated
[4]; Leishmania amazonensis
  IC50: > 10 µM

## Cc1cccc2c(/C=N/c3[se]c4c(c3C#N)CCCC4)c[nH]c12 [Compound 36]
[4]
  IC50: 2.92 µM
[4]; Leishmania amazonensis
  IC50: < 3.5 µM
[5]
  CC50 at 48 h: 186 µM

## N#Cc1c(/N=C/c2c[nH]c3cccc(Br)c23)[se]c2c1CCCC2 [Compound 37]
[4]; Leishmania amazonensis
  IC50: 4.5 µM
[5]
  CC50 at 48 h: 242 µM

## N#Cc1c(/N=C/c2c[nH]c3ccc(Br)cc23)[se]c2c1CCCC2 [Compound 38]
[4]
  IC50: 3.49 µM
[4]; Leishmania amazonensis
  IC50: < 3.5 µM
[5]
  CC50 at 48 h: 239 µM

## COc1cccc2[nH]cc(/C=N/c3[se]c4c(c3C#N)CCCC4)c12 [Compound 39]
[4]
  IC50: 2.15 µM
[4]; Leishmania amazonensis
  IC50: < 3.5 µM
[5]
  CC50 at 48 h: 178 µM

## COc1ccc2[nH]cc(/C=N/c3[se]c4c(c3C#N)CCCC4)c2c1 [Compound 40]
[4]
  IC50 Promastigotes: not active up to the highest concentration evaluated
[4]; Leishmania amazonensis
  IC50: > 10 µM

## N#Cc1c(/N=C/c2c[nH]c3cccc(Br)c23)sc2c1CCCCCC2 [Compound 42, reference compound]
[1]; [10]
  IC50: 1.7 µM and 1.71 µM
[2]; [11]
  IC50: 2.9 µM and 2.97 µM

## CC1CCc2c(sc(/N=C/c3c[nH]c4ccc(Br)cc34)c2C#N)C1 (stereo not drawn) [Me-6CN83]
[1]; [7]
  IC50: 8.7 µM and 8.72 µM
[2]; [9]
  IC50: 9.9 µM
RAW 264.7 macrophages
  CC50: > 100 µM

## N=C(N)c1ccc(OCCCCCOc2ccc(C(=N)N)cc2)cc1 [Pentamidine, reference compound]
[4]; Leishmania amazonensis
  IC50: 42.3 µM
[5]
  CC50 at 48 h: 294 µM

## N#Cc1c(/N=C/c2c[nH]c3ccccc23)sc2c1CCCCC2 [SB-44, reference compound]
[1]; [12]
  IC50: 15.8 µM
[1]; L. amazonensis amastigotes
  EC50: 15.8 µM
[2]; [9]
  IC50: 7.3 µM and 7.37 µM

## N#Cc1c(/N=C/c2c[nH]c3ccc(Br)cc23)sc2c1CCCCC2 [SB-200]
[1]; [12]
  IC50: 20 µM and 20.1 µM
[1]; L. amazonensis amastigotes
  EC50: 20.1 µM
[2]; [9]
  IC50: 3.6 µM and 3.65 µM
RAW 264.7 macrophages
  CC50: 32 µM

## Cc1ccc2[nH]cc(/C=N/c3sc4c(c3C#N)CCCC4)c2c1 [TN6-1, reference compound]
[2]; [13]
  IC50: 7.2 µM

## N#Cc1c(/N=C/c2c[nH]c3ccccc23)sc2c1CCCCC2 [TN7, reference compound]
[2]; [13]
  IC50: 10 µM

## Meglumine antimoniate [reference compound]
[1]; [10]
  IC50: 2.77 µM
[4]
  IC50: 70.3 µM and 58.9 µM and 67.9 µM
[2]; [11]
  IC50: 70.3 µM
